The target of test [1] is T1, Carbonic anhydrase 6 (Homo sapiens, UniProt P23280). As to the kind of experiment: Inhibition of human recombinant carbonic anhydrase 6 preincubated for 15 mins to 72 hrs measured after 15 mins by stopped flow CO2 hydration method.
The target in test [2] is T2, Carbonic anhydrase 2 (Homo sapiens, UniProt P00918). The test is described as follows: Inhibition of human recombinant carbonic anhydrase 2 preincubated for 15 mins to 72 hrs measured after 6 hrs by stopped flow CO2 hydration method.
For test [3], the target named is T3, Carbonic anhydrase 3 (Homo sapiens, UniProt P07451). The test is described as follows: Inhibition of human recombinant carbonic anhydrase 3 preincubated for 15 mins to 72 hrs measured after 6 hrs by stopped flow CO2 hydration method.
T3 sequence (P07451 whole entry): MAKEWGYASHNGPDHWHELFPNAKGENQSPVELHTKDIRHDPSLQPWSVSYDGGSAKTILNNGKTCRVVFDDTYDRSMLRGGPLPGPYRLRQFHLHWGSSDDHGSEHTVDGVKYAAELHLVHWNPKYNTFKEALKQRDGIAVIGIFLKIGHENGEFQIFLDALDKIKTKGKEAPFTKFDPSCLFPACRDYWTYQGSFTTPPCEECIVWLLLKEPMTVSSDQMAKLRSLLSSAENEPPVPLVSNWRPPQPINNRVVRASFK
Test [4] deals with T4, Carbonic anhydrase 4 (Homo sapiens, UniProt P22748). As to the kind of experiment: Inhibition of human recombinant carbonic anhydrase 4 preincubated for 15 mins to 72 hrs measured after 6 hrs by stopped flow CO2 hydration method.
T4 sequence (P22748 whole entry): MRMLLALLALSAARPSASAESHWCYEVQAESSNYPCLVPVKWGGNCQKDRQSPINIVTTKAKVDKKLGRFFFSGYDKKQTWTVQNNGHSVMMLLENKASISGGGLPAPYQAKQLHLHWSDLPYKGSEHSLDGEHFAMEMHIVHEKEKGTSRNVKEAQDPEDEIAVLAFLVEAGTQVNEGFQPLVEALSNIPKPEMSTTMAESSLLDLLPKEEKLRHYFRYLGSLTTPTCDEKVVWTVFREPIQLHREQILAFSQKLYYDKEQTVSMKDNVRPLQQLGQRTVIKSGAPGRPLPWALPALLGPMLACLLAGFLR
Test [5] addresses T5, Carbonic anhydrase 5B, mitochondrial (Homo sapiens, UniProt Q9Y2D0). As to the kind of experiment: Inhibition of human recombinant carbonic anhydrase 5B preincubated for 15 mins to 72 hrs measured after 15 mins by stopped flow CO2 hydration method.
Test [6] concerns the target T3, Carbonic anhydrase 3. The test is described as follows: Inhibition of human recombinant carbonic anhydrase 3 preincubated for 15 mins to 72 hrs measured after 15 mins by stopped flow CO2 hydration method.
For test [7], the target named is T6, Carbonic anhydrase 12 (Homo sapiens, UniProt O43570). The test is described as follows: Inhibition of human recombinant carbonic anhydrase 12 preincubated for 15 mins to 72 hrs measured after 15 mins by stopped flow CO2 hydration method.
T6 sequence (O43570 whole entry): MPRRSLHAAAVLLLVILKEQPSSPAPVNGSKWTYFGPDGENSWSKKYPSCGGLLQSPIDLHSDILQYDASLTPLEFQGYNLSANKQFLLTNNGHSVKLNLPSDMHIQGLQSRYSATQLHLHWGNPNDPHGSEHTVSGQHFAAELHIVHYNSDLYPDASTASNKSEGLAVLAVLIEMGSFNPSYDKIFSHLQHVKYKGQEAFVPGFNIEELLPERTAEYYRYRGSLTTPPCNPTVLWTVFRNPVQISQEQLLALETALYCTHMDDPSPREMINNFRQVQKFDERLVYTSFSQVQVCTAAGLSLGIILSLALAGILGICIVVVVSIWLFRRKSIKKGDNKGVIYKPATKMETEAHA
Test [8] deals with T7, Carbonic anhydrase 14 (Homo sapiens, UniProt Q9ULX7). As to the kind of experiment: Inhibition of human recombinant carbonic anhydrase 14 preincubated for 15 mins to 72 hrs measured after 15 mins by stopped flow CO2 hydration method.
T7 sequence (Q9ULX7 whole entry): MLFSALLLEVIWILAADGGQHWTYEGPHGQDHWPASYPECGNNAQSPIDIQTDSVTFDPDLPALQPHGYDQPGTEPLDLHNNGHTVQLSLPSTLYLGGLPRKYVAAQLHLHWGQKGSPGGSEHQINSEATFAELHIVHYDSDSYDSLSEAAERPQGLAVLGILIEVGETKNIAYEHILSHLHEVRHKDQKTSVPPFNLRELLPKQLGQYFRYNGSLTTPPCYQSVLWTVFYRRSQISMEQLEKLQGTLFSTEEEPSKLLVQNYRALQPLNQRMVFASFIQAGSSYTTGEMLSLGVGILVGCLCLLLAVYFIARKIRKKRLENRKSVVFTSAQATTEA
For test [9], the target named is T8, Carbonic anhydrase 9 (Homo sapiens, UniProt Q16790). As to the kind of experiment: Inhibition of human recombinant carbonic anhydrase 9 preincubated for 15 mins to 72 hrs measured after 15 mins by stopped flow CO2 hydration method.
Test [10] deals with T9, Carbonic anhydrase 13 (Homo sapiens, UniProt Q8N1Q1). As to the kind of experiment: Inhibition of human recombinant carbonic anhydrase 13 preincubated for 15 mins to 72 hrs measured after 15 mins by stopped flow CO2 hydration method.
T9 sequence (Q8N1Q1 whole entry): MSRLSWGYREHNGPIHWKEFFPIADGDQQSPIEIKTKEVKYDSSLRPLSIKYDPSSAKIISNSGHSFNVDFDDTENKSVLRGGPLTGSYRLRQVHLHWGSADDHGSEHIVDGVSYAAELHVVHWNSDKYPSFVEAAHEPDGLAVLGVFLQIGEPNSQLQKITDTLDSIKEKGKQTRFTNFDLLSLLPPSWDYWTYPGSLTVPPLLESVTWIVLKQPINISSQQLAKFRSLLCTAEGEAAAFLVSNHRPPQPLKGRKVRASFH
Test [11] has as its target T6, Carbonic anhydrase 12. The test is described as follows: Inhibition of human recombinant carbonic anhydrase 12 preincubated for 15 mins to 72 hrs measured after 6 hrs by stopped flow CO2 hydration method.
The target in test [12] is T4, Carbonic anhydrase 4. As to the kind of experiment: Inhibition of human recombinant carbonic anhydrase 4 preincubated for 15 mins to 72 hrs measured after 15 mins by stopped flow CO2 hydration method.
Test [13] deals with T10, Carbonic anhydrase 5A, mitochondrial (Homo sapiens, UniProt P35218). The test is described as follows: Inhibition of human recombinant carbonic anhydrase 5A preincubated for 15 mins to 72 hrs measured after 6 hrs by stopped flow CO2 hydration method.
T10 sequence (P35218 whole entry): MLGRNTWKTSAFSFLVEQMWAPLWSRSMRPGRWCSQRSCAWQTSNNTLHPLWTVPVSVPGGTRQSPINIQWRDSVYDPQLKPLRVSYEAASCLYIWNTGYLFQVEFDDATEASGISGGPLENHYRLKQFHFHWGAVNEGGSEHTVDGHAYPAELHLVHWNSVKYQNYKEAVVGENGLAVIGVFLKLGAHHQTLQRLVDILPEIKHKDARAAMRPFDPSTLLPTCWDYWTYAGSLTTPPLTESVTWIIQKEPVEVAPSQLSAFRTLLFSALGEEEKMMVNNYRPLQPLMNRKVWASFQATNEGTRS
The target in test [14] is T7, Carbonic anhydrase 14. The test is described as follows: Inhibition of human recombinant carbonic anhydrase 14 preincubated for 15 mins to 72 hrs measured after 6 hrs by stopped flow CO2 hydration method.
The target of test [15] is T2, Carbonic anhydrase 2. The test is described as follows: Inhibition of human recombinant carbonic anhydrase 2 preincubated for 15 mins to 72 hrs measured after 15 mins by stopped flow CO2 hydration method.
Test [16] concerns the target T11, Carbonic anhydrase 1 (Homo sapiens, UniProt P00915). The test is described as follows: Inhibition of human recombinant carbonic anhydrase 1 preincubated for 15 mins to 72 hrs measured after 15 mins by stopped flow CO2 hydration method.
Test [17] addresses T12, Carbonic anhydrase 7 (Homo sapiens, UniProt P43166). As to the kind of experiment: Inhibition of human recombinant carbonic anhydrase 7 preincubated for 15 mins to 72 hrs measured after 6 hrs by stopped flow CO2 hydration method.
The target of test [18] is T11, Carbonic anhydrase 1. The test is described as follows: Inhibition of human recombinant carbonic anhydrase 1 preincubated for 15 mins to 72 hrs measured after 6 hrs by stopped flow CO2 hydration method.
For test [19], the target named is T12, Carbonic anhydrase 7. As to the kind of experiment: Inhibition of human recombinant carbonic anhydrase 7 preincubated for 15 mins to 72 hrs measured after 15 mins by stopped flow CO2 hydration method.
In test [20] the target is T1, Carbonic anhydrase 6. The test is described as follows: Inhibition of human recombinant carbonic anhydrase 6 preincubated for 15 mins to 72 hrs measured after 6 hrs by stopped flow CO2 hydration method.
Test [21] addresses T10, Carbonic anhydrase 5A, mitochondrial. As to the kind of experiment: Inhibition of human recombinant carbonic anhydrase 5A preincubated for 15 mins to 72 hrs measured after 15 mins by stopped flow CO2 hydration method.
Test [22] has as its target T9, Carbonic anhydrase 13. The test is described as follows: Inhibition of human recombinant carbonic anhydrase 13 preincubated for 15 mins to 72 hrs measured after 6 hrs by stopped flow CO2 hydration method.
Test [23] has as its target T8, Carbonic anhydrase 9. As to the kind of experiment: Inhibition of human recombinant carbonic anhydrase 9 preincubated for 15 mins to 72 hrs measured after 6 hrs by stopped flow CO2 hydration method.
Test [24] has as its target T5, Carbonic anhydrase 5B, mitochondrial. The test is described as follows: Inhibition of human recombinant carbonic anhydrase 5B preincubated for 15 mins to 72 hrs measured after 6 hrs by stopped flow CO2 hydration method.
[25] abbreviates: tested as the Zn salt or complex.

T11 sequence (P00915 whole entry): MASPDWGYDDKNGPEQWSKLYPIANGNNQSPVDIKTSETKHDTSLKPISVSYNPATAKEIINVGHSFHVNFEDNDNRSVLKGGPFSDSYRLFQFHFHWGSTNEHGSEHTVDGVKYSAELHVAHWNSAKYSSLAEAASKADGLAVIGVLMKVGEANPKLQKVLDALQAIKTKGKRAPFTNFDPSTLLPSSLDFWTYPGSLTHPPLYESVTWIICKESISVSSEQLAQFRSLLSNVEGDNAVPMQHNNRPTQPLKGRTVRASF
T1 sequence (P23280 whole entry): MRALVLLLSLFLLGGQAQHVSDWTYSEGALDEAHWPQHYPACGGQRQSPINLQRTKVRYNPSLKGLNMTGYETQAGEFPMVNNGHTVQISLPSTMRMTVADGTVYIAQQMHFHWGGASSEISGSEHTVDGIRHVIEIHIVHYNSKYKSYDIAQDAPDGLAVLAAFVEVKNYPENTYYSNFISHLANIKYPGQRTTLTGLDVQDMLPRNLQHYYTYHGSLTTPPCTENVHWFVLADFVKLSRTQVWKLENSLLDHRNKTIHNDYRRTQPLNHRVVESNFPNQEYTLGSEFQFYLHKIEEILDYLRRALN
T5 sequence (Q9Y2D0 whole entry): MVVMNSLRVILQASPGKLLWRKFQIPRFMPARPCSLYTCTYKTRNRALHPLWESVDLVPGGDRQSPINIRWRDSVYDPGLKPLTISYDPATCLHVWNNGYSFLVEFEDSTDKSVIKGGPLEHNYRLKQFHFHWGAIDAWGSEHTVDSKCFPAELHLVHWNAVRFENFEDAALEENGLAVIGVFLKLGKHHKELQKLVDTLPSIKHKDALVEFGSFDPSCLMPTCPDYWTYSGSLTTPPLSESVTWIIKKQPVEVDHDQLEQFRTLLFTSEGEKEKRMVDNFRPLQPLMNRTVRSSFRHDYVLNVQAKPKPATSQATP
T12 sequence (P43166 whole entry): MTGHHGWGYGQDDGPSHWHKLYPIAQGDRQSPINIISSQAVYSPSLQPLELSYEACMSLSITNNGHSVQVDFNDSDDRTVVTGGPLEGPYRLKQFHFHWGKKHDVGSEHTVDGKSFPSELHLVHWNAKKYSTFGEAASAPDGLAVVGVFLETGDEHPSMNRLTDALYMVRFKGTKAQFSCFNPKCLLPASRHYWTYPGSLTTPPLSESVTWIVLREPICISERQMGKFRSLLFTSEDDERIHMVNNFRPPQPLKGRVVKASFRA

As usually defined, the Ki is the dissociation constant of the complex between target and ligand, obtained from inhibition or displacement. Take `Oc1ccc2ccccc2n1`: the inhibitory constant (Ki) in test [1] was 0.033 µM; in test [2], > 200 µM; in test [3], 0.57 µM; in test [4], 0.36 µM; in test [5], 0.75 µM; in [6] it was 0.57 µM. Moreover, the inhibitory constant (Ki) worked out at 0.093 µM in test [7]; 0.036 µM in test [8]; 0.082 µM in test [9]; 0.065 µM in test [10]; 0.093 µM in test [11]; 0.36 µM in test [12]. In addition, the Ki in test [13] is 0.41 µM; in test [14], 0.036 µM; in test [15] it was > 200 µM; in test [16], 6.23 µM; in test [17] it was 0.42 µM; in test [18], 6.23 µM. The Ki in test [19] came out at 0.42 µM; in [20], 0.033 µM; in test [21], 0.41 µM; in [22], 0.065 µM; in [23], 0.082 µM; in test [24], 0.75 µM.
Regarding `Cc1cc(C)o/c(=N/O)c1`, the Ki in test [2] was > 200 µM; in [11] it was 0.064 µM; in test [17], 0.27 µM; in test [18], 0.009 µM; in test [23], 0.016 µM.
Regarding `O/N=c1/ccc2ccccc2o1`, the Ki in test [2] is > 200 µM; in [11], 0.054 µM; in test [17] it was 0.84 µM; in test [18] it was 0.009 µM; in test [23], 0.058 µM.
Turning to `CCOP(=S)(OCC)Oc1ccc2c(C)c(Cl)c(=O)oc2c1` [COUMAPHOS], the Ki in [2] was > 200 µM; in test [3], 4.62 µM; in test [4], 5.48 µM; in test [11], 9.52 µM; in test [13] it was 5.09 µM; in [14], 4.14 µM. In addition, the Ki in [17] is 4.68 µM; in [18], 61.7 µM; in test [20] it was 2.23 µM; in test [22] it was 4.23 µM; in test [23], 6.41 µM; in [24], 3.41 µM.
On to `O=c1ccc2ccccc2o1` [COUMARIN], for which the Ki in test [3] is > 200 µM; in test [4] it was 62.3 µM; in test [17], > 200 µM; in test [22] it was > 200 µM.
As for `[O-][n+]1ccccc1S` [PYRITHIONE ZINC], the Ki is 2.41 µM in test [1] (setting [25]); > 200 µM in [2] (setting [25]); 1.62 µM in test [3] (setting [25]); 6.13 µM in [4] (setting [25]); 3.55 µM in test [5] (setting [25]); 1.62 µM in test [6] (setting [25]). Moreover, the inhibitory constant (Ki) in [7] (setting [25]) was 5.4 µM; in test [8] (setting [25]) it was 2.91 µM; in test [9] (setting [25]), 1.72 µM; in test [10] (setting [25]) it was 4.15 µM; in test [11] (setting [25]), 5.4 µM; in [12] (setting [25]), 6.13 µM. Besides, the Ki was 5.12 µM in test [13] (setting [25]); 2.91 µM in [14] (setting [25]); > 200 µM in test [15] (setting [25]); > 200 µM in [16] (setting [25]); 7.76 µM in test [17] (setting [25]); > 200 µM in [18] (setting [25]). Besides, the inhibition constant (Ki) in [19] (setting [25]) is 7.76 µM; in test [20] (setting [25]), 2.41 µM; in [21] (setting [25]), 5.12 µM; in test [22] (setting [25]) it was 4.15 µM; in test [23] (setting [25]), 1.72 µM; in [24] (setting [25]) it was 3.55 µM.
On to `O=C(S)c1ccccc1` [THIOBENZOIC ACID], for which the Ki in [2] is 51 µM; in test [7] it was 2.77 µM; in test [9], 5.64 µM; in test [11] it was 2.77 µM; in [15] it was 51 µM; in test [16], 10.8 µM. For the same molecule, the Ki in [17] worked out at 5.74 µM; in test [18] it was 10.8 µM; in test [19], 5.74 µM; in test [23] it was 5.64 µM.

These data come from ChEMBL document CHEMBL1955812, “New chemotypes acting as isozyme-selective carbonic anhydrase inhibitors with low affinity for the offtarget cytosolic isoform II” (Bioorg Med Chem Lett, 2012).
